Assay results: patent US20050288270A1, “New aminopyridine derivatives and their use as pharmaceuticals” (Pfizer Inc, priority 2004, published 2005)

Key:
[1] = target: dopamine D3 receptor (Homo sapiens, UniProt P35462); test: D3/D2 agonist assay, functional potency at D3 receptor; type: cell-based
Description: (§1) Activity at the dopamine D3 receptor may be determined using the methods described in WO 2004/052372. […] Selectivity is calculated as the D2 EC50 value divided by the D3 EC50 value. Where the value of the D2 EC50 was >10000, a figure of 10000 was used in the calculation.

[2] = target: D2 receptor (Homo sapiens, UniProt P14416); test: D3/D2 agonist assay, functional response at D2 receptor; type: cell-based; settings: at 1000 nM; relative to the maximal effect of pramipexole
D2 receptor, sequence (P14416 whole entry): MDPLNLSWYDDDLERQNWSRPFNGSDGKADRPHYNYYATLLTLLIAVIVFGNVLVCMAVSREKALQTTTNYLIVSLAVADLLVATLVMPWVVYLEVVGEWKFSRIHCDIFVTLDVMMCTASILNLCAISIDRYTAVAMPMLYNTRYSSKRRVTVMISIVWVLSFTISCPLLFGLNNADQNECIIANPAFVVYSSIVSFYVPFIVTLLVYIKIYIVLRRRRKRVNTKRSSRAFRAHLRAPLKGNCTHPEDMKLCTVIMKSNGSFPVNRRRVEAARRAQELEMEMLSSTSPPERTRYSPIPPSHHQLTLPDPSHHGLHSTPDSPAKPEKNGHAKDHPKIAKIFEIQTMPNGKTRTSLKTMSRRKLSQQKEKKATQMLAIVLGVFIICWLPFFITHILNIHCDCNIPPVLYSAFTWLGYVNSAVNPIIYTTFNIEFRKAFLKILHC
Description: as §1

dopamine D3 receptor, sequence (P35462 whole entry): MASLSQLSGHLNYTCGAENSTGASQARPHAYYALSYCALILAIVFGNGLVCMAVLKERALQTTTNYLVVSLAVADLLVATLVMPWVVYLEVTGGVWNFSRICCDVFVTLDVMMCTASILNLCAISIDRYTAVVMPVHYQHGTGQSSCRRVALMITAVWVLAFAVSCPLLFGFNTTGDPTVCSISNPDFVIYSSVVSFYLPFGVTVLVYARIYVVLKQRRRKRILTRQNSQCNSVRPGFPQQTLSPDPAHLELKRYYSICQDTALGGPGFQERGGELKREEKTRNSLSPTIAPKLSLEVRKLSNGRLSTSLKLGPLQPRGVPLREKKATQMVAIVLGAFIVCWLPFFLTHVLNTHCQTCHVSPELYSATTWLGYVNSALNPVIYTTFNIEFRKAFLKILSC

CCCN1CC(c2ccc(N)nc2)OCC1CO (single isomer, unassigned) [Example 14, [6-(6-Aminopyridin-3-yl)-4-propylmorpholin-3-yl]methanol]
EC50 ([1]; agonist, read-out: functional potency at the D3 receptor, expressed as an EC50): 0.02 µM | Emax ([1]; relative to the maximal effect of standard agent pramipexole, read-out: Emax (maximal response value)): 98% | response against the D2 receptor [2]: 22%
